Marks after values point to notes of the source that are not given here.
Molecular target: T1, FXIIIa (Homo sapiens, UniProt P00488)
T1 construct: purchased Haematologic Technologies; host or cells: human plasma
T1 sequence (P00488 39-732 limits assumed): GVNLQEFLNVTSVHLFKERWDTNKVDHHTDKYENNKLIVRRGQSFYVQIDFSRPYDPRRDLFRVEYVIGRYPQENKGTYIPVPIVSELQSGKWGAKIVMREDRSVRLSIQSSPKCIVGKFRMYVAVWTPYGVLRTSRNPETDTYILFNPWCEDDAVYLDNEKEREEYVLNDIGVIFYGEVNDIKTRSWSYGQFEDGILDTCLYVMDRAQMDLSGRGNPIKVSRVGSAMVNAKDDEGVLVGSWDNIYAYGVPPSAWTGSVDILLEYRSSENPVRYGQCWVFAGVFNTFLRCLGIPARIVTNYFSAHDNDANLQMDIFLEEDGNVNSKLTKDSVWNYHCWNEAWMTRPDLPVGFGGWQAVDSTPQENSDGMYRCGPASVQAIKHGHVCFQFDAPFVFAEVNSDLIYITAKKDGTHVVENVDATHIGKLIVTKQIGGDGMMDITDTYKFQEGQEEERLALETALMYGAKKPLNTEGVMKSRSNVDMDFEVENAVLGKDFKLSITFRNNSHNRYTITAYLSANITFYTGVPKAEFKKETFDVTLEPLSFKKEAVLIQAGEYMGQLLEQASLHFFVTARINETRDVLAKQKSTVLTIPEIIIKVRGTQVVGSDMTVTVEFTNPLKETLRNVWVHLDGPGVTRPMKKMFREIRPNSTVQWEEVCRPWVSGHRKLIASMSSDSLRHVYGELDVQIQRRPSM
Test: Michaelis-Menten kinetics of dansylcadaverine and N,N-dimethylcasein conjugation by human FXIIIa
Format: biochemical
Conditions: for VMAX, dansylcadaverine varied: N,N-dimethylcasein 5 mg/mL; for VMAX, dimethylcasein varied: dansylcadaverine 250 μM
Protocol: To elucidate the FXIIIa inhibitory capacity of compound 16, the kinetics of dansylcadaverine conjugation with dimethylcasein by FXIIIa were investigated with and without the inhibitor using the bisubstrate fluorescence assay.[36],[49],[55] At a fixed, high concentration of dansylcadaverine (250 μM), the initial rate of conjugation increased in a hyperbolic manner with increasing concentration of dimethylcasein (0–15 mg/mL) (Figure 6A) in the presence as well as absence of inhibitor 16. Analysis using the Michaelis equation led to KM values for dimethylcasein of 0.65 ± 0.04 mg/mL (∼29.5 μM) and 7.54 ± 0.90 mg/mL (∼342.7 μM) in the absence and presence of 16, respectively (Table 4). […] To derive kinetic constants for dansylcadaverine, we used a fixed, high concentration of dimethylcasein (5 mg/mL) and studied the initial rate of conjugation, as described above. […] It is important to note that FXIIIa-mediated reaction is a bisubstrate conjugation reaction and its interaction with inhibitor 16 is sensed differently by the two substrates. […] Yet, for both substrates, there was a similar slight decrease (∼1.5-fold) in the VMAX with the same inhibitor concentration. In these experiments inhibitor 16 was used at varying levels, of which the highest concentration ensured that FXIIIa was essentially fully saturated and inhibited.
The initial rate of FXIIIa-mediated conjugation between dansylcadaverine and N,N-dimethylcasein was determined by monitoring the linear increase in fluorescence at λEM = 550 nm (λEX = 360 nm). This initial rate was assessed as a function of various concentrations of either (1) dansylcadaverine (ranging from 0 to 15 mM; resulting effective concentrations in the well were 0–750 μM) at a fixed saturating concentration of dimethylcasein (5 mg/mL), or (2) dimethylcasein (ranging from 0 to 15 mg/mL) at a fixed concentration of dansylcadaverine (5 mM; resulting effective concentration of 250 μM), both in the absence or presence of inhibitor 16 (at concentrations of 0, 0.5, 2.5, 15, and 25 μM). These assays were conducted in 50 mM Tris-HCl buffer at pH 8.0, containing 100 mM NaCl, 1 mM DTT, and 10 mM CaCl2 at 37 °C. The obtained data were fitted using the standard Michaelis–Menten equation (eq 2) to determine the values of KM and VMAX. [drawing 2] 2

## Nc1c(/N=N/c2ccc(S(=O)(=O)CCOS(=O)(=O)O)cc2)c(S(=O)(=O)O)cc2cc(S(=O)(=O)O)c(/N=N/c3ccc(S(=O)(=O)CCOS(=O)(=O)O)cc3)c(O)c12 [compound 16]
  mechanism of FXIIIa inhibition (Michaelis–Menten kinetics): only competes with the Gln-donor protein substrate
16 at 25 μM vs absence
  decrease in VMAX, dansylcadaverine varied: ~1.5 fold
  decrease in VMAX, dimethylcasein varied: ~1.4 fold
  decrease in dansylcadaverine binding affinity (KM increase): ~2 fold
  decrease in dimethylcasein binding affinity (KM increase): ~11.6 fold
[16] = 0.5 μM
  VMAX, dansylcadaverine varied: 111.4 ± 4.1 RFU/min (×10^3)
  VMAX, dimethylcasein varied: 43.5 ± 2.4 RFU/min (×10^3)
[16] = 2.5 μM
  VMAX, dansylcadaverine varied: 89.76 ± 3.8 RFU/min (×10^3)
  VMAX, dimethylcasein varied: 42.0 ± 0.6 RFU/min (×10^3)
[16] = 15 μM
  VMAX, dansylcadaverine varied: 81.94 ± 4.0 RFU/min (×10^3)
  VMAX, dimethylcasein varied: 44.5 ± 1.5 RFU/min (×10^3)
[16] = 25 μM
  VMAX, dansylcadaverine varied: 69.69 ± 2.9 RFU/min (×10^3)
  VMAX, dimethylcasein varied: 34.9 ± 2.0 RFU/min (×10^3)

From article PMC11256326, “Discovery of Heparin Mimetic, Potent, and Selective Inhibitors of Human Clotting Factor XIIIa” (ACS Omega, 2024)
